We go through six compounds from doi:10.1101/2022.07.07.499167v1, “The thermodynamic state of aerobic glycolytic flux plays a critical role in stabilizing aerobic glycolytic flux of cancer cells” (biorxiv, 2022).

Molecules are shown by their SMILES.

In experiment [1] the target is T1, pure recombinant PKM2 (Homo sapiens, UniProt P14618).
T1 construct: gene PKM; PKM2 cDNA in pQE-30, 6xHis tag (removal not mentioned), expressed in E. coli M15 (pREP4), Ni-NTA purified
In words: LDH-coupled pyruvate kinase assay, NADH absorbance […] nm. It counts as biochemical. The following applies: 0.2 mM PEP, 2 mM ADP, 5 mM MgCl2, 100 mM KCl, pH 7.4, 37 °C; no FBP; allosteric inhibitor.

For experiment [2], the target named is T1, pure recombinant PKM2. Described as above. Format: biochemical. The following applies: 0.2 mM PEP, 2 mM ADP, 5 mM MgCl2, 100 mM KCl, pH 7.4, 37 °C; no inhibitor mixture; allosteric activator.

T1 sequence (P14618 2-531): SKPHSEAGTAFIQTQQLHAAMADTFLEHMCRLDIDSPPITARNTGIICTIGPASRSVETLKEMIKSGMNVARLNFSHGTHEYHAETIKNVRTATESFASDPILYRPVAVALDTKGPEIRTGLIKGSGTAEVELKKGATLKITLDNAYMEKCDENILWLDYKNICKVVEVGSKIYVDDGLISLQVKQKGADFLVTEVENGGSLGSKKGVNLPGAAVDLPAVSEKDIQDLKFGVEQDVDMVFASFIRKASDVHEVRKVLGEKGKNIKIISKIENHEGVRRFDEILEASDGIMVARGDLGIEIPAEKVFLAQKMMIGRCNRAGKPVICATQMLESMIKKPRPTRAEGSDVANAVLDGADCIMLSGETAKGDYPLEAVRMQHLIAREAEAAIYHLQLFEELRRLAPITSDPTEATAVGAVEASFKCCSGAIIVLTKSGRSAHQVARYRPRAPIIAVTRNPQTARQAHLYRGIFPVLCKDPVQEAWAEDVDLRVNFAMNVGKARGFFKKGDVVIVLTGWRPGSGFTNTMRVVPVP

A word on the IC50: it is the concentration that inhibits the measured activity by half. For the compound `C[C@H](N)C(=O)O` [Alanine], at pure recombinant PKM2 [1], the IC50 was 227 ± 174 µM.

As usually defined, the AC50 is the concentration giving half of the maximal activity seen. In the case of `O=P(O)(O)OC[C@H]1OC(O)(COP(=O)(O)O)[C@@H](O)[C@@H]1O` (stereo partly drawn) [FBP], the half-maximal activity concentration (AC50) at pure recombinant PKM2 [2] was 0.0434 ± 0.0217 µM.

For the compound `N[C@@H](Cc1ccccc1)C(=O)O` [Phenylalanine], the IC50 on pure recombinant PKM2 [1] worked out at 40.9 ± 13.4 µM.

With `N[C@@H](CO)C(=O)O` [Serine], the AC50 at pure recombinant PKM2 [2] was found to be 339 ± 123 µM.

Consider `N[C@@H](Cc1c[nH]c2ccccc12)C(=O)O` [Tryptophan], for which, on pure recombinant PKM2 [1], the IC50 is 254 ± 104 µM.

As to `CC(C)[C@H](N)C(=O)O` [Valine], the IC50 on pure recombinant PKM2 [1] was 373 ± 175 µM.
